Assays:
[1] = molecular target: T1, lipase from Pseudomonas cepacia (PCL) (Burkholderia cepacia, UniProt P22088); assay: Inhibition of lipase activity in Triton X-100 micelles, continuous fluorescence method; format: biochemical; settings: incubation 4° C., 16 hrs; FIG. 3b
T1 construct: R.D. Schmid, University of Stuttgart (obtained, not a commercial purchase)
Method: (§1) Inhibition of lipase activity by the water-insoluble phosphonates was performed in Triton X-100 micelles (2 mM final concentration) and measured by a continuous fluorescence method according to Duque et al, (J. Lipid Res. 37, 868-876 (1996)) using 3-O-hexadecyl-2-pyrenedecanoyl-1-trinitrophenylaminododecanoyl-sn-glycerol as a substrate. Lipase activity was determined at 30° C. from the dequenching of pyrene fluorescence at 378 nm (excitation at 342 nm, slit widths 5.0 nm each) (the initial linear increase in fluorescence intensity after addition of the lipase was used to measure enzyme activity). The measurements were performed in ethanol-water (1:3 by vol.) as a solvent.
(§2) Triton X-100 specially purified for membrane research (Hofmann La Roche) (10 μL of a 100 mM stock solution in chloroform) and the appropriate volume of a phosphonate solution in chloroform were mixed and the solvent was removed under a stream of nitrogen. The residue was dispersed in an 100 μM Tris-HCl puffer (pH 7.40 at 37° C.) by vigorous vortexing followed by addition of an aliquot of a lipase solution, giving a total volume of 500 μL. Incubations were performed at 4° C. The percentage of inhibition after 16 hrs in the reaction mixture was determined by measuring the residual lipase activity of appropriate aliquots (3 μL) as indicated above. Controls were run in parallel under identical conditions but in the absence of inhibitors.
(§3) The novel compounds were tested with respect to their ability to inhibit three selected microbial lipases with different substrate preferences. The lipase from Rhizopus oryzae was efficiently inactivated by the perylene- and NBD-inhibitors (FIG. 3a) at 4° C. for 16 hrs in 100 μM Tris-HCl puffer at inhibitor and lipase concentrations of 1.0 mM and 0.1 mM, respectively. […] This is in line with the assumption that lipases prefer long-chain glycerol esters as substrates, and evidently inhibitors as well. […] In contrast, the Pseudomonas species lipase was quantitatively inactivated by all synthesized organophosphonates (FIG. 3c).

[2] = molecular target: T2, lipase from Rhizopus oryzae (ROL) (Rhizopus oryzae, UniProt P61872); assay: as above; format: biochemical; settings: 4° C. for 16 hrs, 100 μM Tris-HCl puffer, inhibitor 1.0 mM, lipase 0.1 mM; FIG. 3a
T2 construct: F. Spener and L. Haalck, University of Münster (gift)
T2 sequence (P61872 96-392): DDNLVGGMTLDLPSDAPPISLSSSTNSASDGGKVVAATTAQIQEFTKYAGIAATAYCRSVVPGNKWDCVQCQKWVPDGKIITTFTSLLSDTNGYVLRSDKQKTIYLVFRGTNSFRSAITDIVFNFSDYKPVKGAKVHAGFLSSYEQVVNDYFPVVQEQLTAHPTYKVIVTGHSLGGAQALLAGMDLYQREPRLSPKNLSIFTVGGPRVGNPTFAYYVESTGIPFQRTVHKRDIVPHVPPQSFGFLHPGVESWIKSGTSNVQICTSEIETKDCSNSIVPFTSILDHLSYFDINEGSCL
Method: as §1, §2, §3

T1 sequence (P22088 45-364): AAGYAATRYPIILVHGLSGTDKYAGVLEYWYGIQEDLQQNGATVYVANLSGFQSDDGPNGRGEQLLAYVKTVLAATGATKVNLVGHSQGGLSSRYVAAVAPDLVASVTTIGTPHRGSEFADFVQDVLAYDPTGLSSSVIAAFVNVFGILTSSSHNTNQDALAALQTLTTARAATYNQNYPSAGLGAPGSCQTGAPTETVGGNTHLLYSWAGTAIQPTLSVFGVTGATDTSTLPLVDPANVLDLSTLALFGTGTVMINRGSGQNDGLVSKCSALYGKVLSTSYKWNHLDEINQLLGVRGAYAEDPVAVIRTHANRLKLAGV

Compound | inhibition of lipase from Pseudomonas cepacia [1] | inhibition (inactivation) of lipase from Rhizopus oryzae [2]
CCCCCCCCOCC(COP(=O)(CCCCCC)Oc1ccc([N+](=O)[O-])cc1)NC(=O)CCCc1ccc2c3cccc4cccc(c5cccc1c52)c43 (stereo not drawn) [XXII, 2-(4-(3-Perylenyl)butanoyl)amino-2-deoxy-3-O-octyl-sn-glycero-1-O-hexylphosphonate p-nitrophenyl ester] | much more potent inhibitor | –
CCCCCCCCCCCCCCCCOCC(COP(=O)(CCCCCC)Oc1ccc([N+](=O)[O-])cc1)NC(=O)CCCCCCCc1ccc2c3cccc4cccc(c5cccc1c52)c43 (stereo not drawn) [XXIII, 2-(8-(3-Perylenyl)octanoyl)amino-2-deoxy-3-O-hexadecyl-sn-glycero-1-O-hexylphosphonate p-nitrophenyl ester] | – | somewhat more active
CCCCCCCCCCCCCCCCOCC(COP(=O)(CCCCCC)Oc1ccc([N+](=O)[O-])cc1)NC(=O)CCCCCCCCCCCNc1ccc([N+](=O)[O-])c2nonc12 (stereo not drawn) [XXV, 2-(NBD-dodecanoyl)amino-2-deoxy-3-O-hexadecyl-sn-glycero-1-O-hexylphosphonate p-nitrophenyl ester] | – | slightly more effective
